# From patent US20250171438A1 (Agios Pharmaceuticals, Inc., priority 2022, published 2025)
# Target: T1, human PAH with the R408W mutation (Homo sapiens, UniProt P00439, R408W)
# T1 construct: expressed in transfected cells
# T1 sequence (P00439 1-452 R408W): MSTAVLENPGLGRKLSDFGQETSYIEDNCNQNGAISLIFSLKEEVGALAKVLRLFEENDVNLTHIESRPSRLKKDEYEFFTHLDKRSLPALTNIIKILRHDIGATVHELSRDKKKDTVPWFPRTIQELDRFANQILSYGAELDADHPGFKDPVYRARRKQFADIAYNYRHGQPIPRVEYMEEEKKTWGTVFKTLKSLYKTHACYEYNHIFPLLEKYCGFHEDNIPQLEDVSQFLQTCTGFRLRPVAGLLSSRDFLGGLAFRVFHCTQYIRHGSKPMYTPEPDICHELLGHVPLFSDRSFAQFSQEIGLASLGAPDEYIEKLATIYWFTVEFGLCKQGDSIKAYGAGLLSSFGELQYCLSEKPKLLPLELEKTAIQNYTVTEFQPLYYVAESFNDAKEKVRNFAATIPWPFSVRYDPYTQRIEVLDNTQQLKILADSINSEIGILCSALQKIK
# Assay: Cell Based Phenylalanine Flux Assay
# Settings: A375 cells expressing human R408W PAH; 24 hrs compound incubation; 13C-Tyrosine by LC-MS; average where tested multiple times; read-out: AC50
row,SMILES,AC50 [nM]
1,"O=C(CCc1nccs1)N1CCc2[nH]cnc2[C@H]1c1nc2ccccc2[nH]1 [Example 900, (S)-1-(4-(1H-benzo[d]imidazol-2-yl)-6,7-dihydro-1H-imidazo[4,5-c]pyridin-5(4H)-yl)-3-(thiazol-2-yl)propan-1-one]",500 to 1000
2,"O=C(CCc1nccs1)N1CCc2[nH]cnc2[C@@H]1c1nc2ccccc2[nH]1 [Example 901, (R)-1-(4-(1H-benzo[d]imidazol-2-yl)-6,7-dihydro-1H-imidazo[4,5-c]pyridin-5(4H)-yl)-3-(thiazol-2-yl)propan-1-one]",> 5000
3,"O=C(c1nccs1)N1CCc2[nH]cnc2[C@@H]1c1nc2ccccc2[nH]1 [Example 902, (R)-(4-(1H-benzo[d]imidazol-2-yl)-6,7-dihydro-1H-imidazo[4,5-c]pyridin-5(4H)-yl)(thiazol-2-yl)methanone]",> 5000
4,"O=C(c1nccs1)N1CCc2[nH]cnc2[C@H]1c1nc2ccccc2[nH]1 [Example 903, (S)-(4-(1H-benzo[d]imidazol-2-yl)-6,7-dihydro-1H-imidazo[4,5-c]pyridin-5(4H)-yl)(thiazol-2-yl)methanone]",500 to 1000
5,O=C(Cc1nc2ccccc2s1)N1CCc2[nH]cnc2[C@H]1c1nc2ccccc2[nH]1 [Example 905],1000 to 5000
6,"CC(C)(C)CCC(=O)N1CCc2[nH]cnc2[C@@H]1c1nc2ccccc2[nH]1 [Example 906, (R)-1-(4-(1H-benzo[d]imidazol-2-yl)-6,7-dihydro-1H-imidazo[4,5-c]pyridin-5(4H)-yl)-4,4-dimethylpentan-1-one]",1000 to 5000
7,"CC(C)(C)CCC(=O)N1CCc2[nH]cnc2[C@H]1c1nc2ccccc2[nH]1 [Example 907, (S)-1-(4-(1H-benzo[d]imidazol-2-yl)-6,7-dihydro-1H-imidazo[4,5-c]pyridin-5(4H)-yl)-4,4-dimethylpentan-1-one]",< 500
8,"O=C(CCc1nccs1)N1CCc2[nH]cnc2[C@H]1c1nc2ccc(Br)cc2[nH]1 [Example 908, (S)-1-(4-(6-bromo-1H-benzo[d]imidazol-2-yl)-6,7-dihydro-1H-imidazo[4,5-c]pyridin-5(4H)-yl)-3-(thiazol-2-yl)propan-1-one]",< 500
9,"O=C(CCc1nccs1)N1CCc2[nH]cnc2[C@@H]1c1nc2ccc(Br)cc2[nH]1 [Example 909, (R)-1-(4-(6-bromo-1H-benzo[d]imidazol-2-yl)-6,7-dihydro-1H-imidazo[4,5-c]pyridin-5(4H)-yl)-3-(thiazol-2-yl)propan-1-one]",> 5000
10,"O=C(CCc1nccs1)N1CCc2[nH]cnc2[C@H]1c1nc2ccc(Cl)cc2[nH]1 [Example 910, (S)-1-(4-(6-chloro-1H-benzo[d]imidazol-2-yl)-6,7-dihydro-1H-imidazo[4,5-c]pyridin-5(4H)-yl)-3-(thiazol-2-yl)propan-1-one]",500 to 1000
11,"O=C(CCC1CCCC1)N1CCc2[nH]cnc2[C@@H]1c1nc2ccccc2[nH]1 [Example 912, (R)-1-(4-(1H-benzo[d]imidazol-2-yl)-6,7-dihydro-1H-imidazo[4,5-c]pyridin-5(4H)-yl)-3-cyclopentylpropan-1-one]",> 5000
12,"O=C(CCC1CCCC1)N1CCc2[nH]cnc2[C@H]1c1nc2ccccc2[nH]1 [Example 913, (S)-1-(4-(1H-benzo[d]imidazol-2-yl)-6,7-dihydro-1H-imidazo[4,5-c]pyridin-5(4H)-yl)-3-cyclopentylpropan-1-one]",500 to 1000
13,"O=C(c1cncs1)N1CCc2[nH]cnc2[C@H]1c1nc2ccccc2[nH]1 [Example 914, (S)-(4-(1H-benzo[d]imidazol-2-yl)-6,7-dihydro-1H-imidazo[4,5-c]pyridin-5(4H)-yl)(thiazol-5-yl)methanone]",500 to 1000
14,"O=C(c1cncs1)N1CCc2[nH]cnc2[C@@H]1c1nc2ccccc2[nH]1 [Example 915, (R)-(4-(1H-benzo[d]imidazol-2-yl)-6,7-dihydro-1H-imidazo[4,5-c]pyridin-5(4H)-yl)(thiazol-5-yl)methanone]",> 5000
15,"O=C(c1nc(Cl)cs1)N1CCc2[nH]cnc2[C@H]1c1nc2ccccc2[nH]1 [Example 917, (S)-(4-(1H-benzo[d]imidazol-2-yl)-6,7-dihydro-1H-imidazo[4,5-c]pyridin-5(4H)-yl)(4-chlorothiazol-2-yl)methanone]",500 to 1000
16,"COc1cccc(CCCC(=O)N2CCc3[nH]cnc3[C@@H]2c2nc3ccccc3[nH]2)c1 [Example 918, (R)-1-(4-(1H-benzo[d]imidazol-2-yl)-6,7-dihydro-1H-imidazo[4,5-c]pyridin-5(4H)-yl)-4-(3-methoxyphenyl)butan-1-one]",> 5000
17,"COc1cccc(CCCC(=O)N2CCc3[nH]cnc3[C@H]2c2nc3ccccc3[nH]2)c1 [Example 919, (S)-1-(4-(1H-benzo[d]imidazol-2-yl)-6,7-dihydro-1H-imidazo[4,5-c]pyridin-5(4H)-yl)-4-(3-methoxyphenyl)butan-1-one]",1000 to 5000
18,"O=C(c1ncc(Cl)s1)N1CCc2[nH]cnc2[C@@H]1c1nc2ccccc2[nH]1 [Example 920, (R)-(4-(1H-benzo[d]imidazol-2-yl)-6,7-dihydro-1H-imidazo[4,5-c]pyridin-5(4H)-yl)(5-chlorothiazol-2-yl)methanone]",> 5000
19,"O=C(c1ncc(Cl)s1)N1CCc2[nH]cnc2[C@H]1c1nc2ccccc2[nH]1 [Example 921, (S)-(4-(1H-benzo[d]imidazol-2-yl)-6,7-dihydro-1H-imidazo[4,5-c]pyridin-5(4H)-yl)(5-chlorothiazol-2-yl)methanone]",500 to 1000
20,"O=C(c1cnn2ccccc12)N1CCc2[nH]cnc2[C@@H]1c1nc2ccccc2[nH]1 [Example 922, (R)-(4-(1H-benzo[d]imidazol-2-yl)-6,7-dihydro-1H-imidazo[4,5-c]pyridin-5(4H)-yl)(pyrazolo[1,5-a]pyridin-3-yl)methanone]",> 5000

# Same assay, conditions: A375 cells expressing human R408W PAH; 24 hrs with compound; 13C-Tyrosine by LC-MS; average where tested multiple times; read-out: AC50
row,SMILES,AC50 [nM]
1,"CC(C)(O)c1nc(C2CC2)c(C(=O)N2CCc3[nH]cnc3[C@H]2c2nc3ccccc3[nH]2)o1 [(S)-(4-(1H-benzo[d]imidazol-2-yl)-6,7-dihydro-1H-imidazo[4,5-c]pyridin-5(4H)-yl)(4-cyclopropyl-2-(2-hydroxypropan-2-yl)oxazol-5-yl)methanone]",1000 to 5000
2,"O=C(c1cnn2ccc(Cl)cc12)N1CCc2[nH]cnc2[C@H]1c1nc2ccccc2[nH]1 [(S)-(4-(1H-benzo[d]imidazol-2-yl)-6,7-dihydro-1H-imidazo[4,5-c]pyridin-5(4H)-yl)(5-chloropyrazolo[1,5-a]pyridin-3-yl)methanone]",1000 to 5000
3,"O=C(c1nc2cc(F)ccc2s1)N1CCc2[nH]cnc2[C@H]1c1nc2ccccc2[nH]1 [(S)-(4-(1H-benzo[d]imidazol-2-yl)-6,7-dihydro-1H-imidazo[4,5-c]pyridin-5(4H)-yl)(5-fluorobenzo[d]thiazol-2-yl)methanone]",1000 to 5000
4,"COc1ccn2ncc(C(=O)N3CCc4[nH]cnc4[C@H]3c3nc4ccccc4[nH]3)c2c1 [(S)-(4-(1H-benzo[d]imidazol-2-yl)-6,7-dihydro-1H-imidazo[4,5-c]pyridin-5(4H)-yl)(5-methoxypyrazolo[1,5-a]pyridin-3-yl)methanone]",1000 to 5000
5,"Cc1ccn2ncc(C(=O)N3CCc4[nH]cnc4[C@H]3c3nc4ccccc4[nH]3)c2c1 [(S)-(4-(1H-benzo[d]imidazol-2-yl)-6,7-dihydro-1H-imidazo[4,5-c]pyridin-5(4H)-yl)(5-methylpyrazolo[1,5-a]pyridin-3-yl)methanone]",1000 to 5000
6,"O=C(c1nc2ccc(F)cc2s1)N1CCc2[nH]cnc2[C@H]1c1nc2ccccc2[nH]1 [(S)-(4-(1H-benzo[d]imidazol-2-yl)-6,7-dihydro-1H-imidazo[4,5-c]pyridin-5(4H)-yl)(6-fluorobenzo[d]thiazol-2-yl)methanone]",1000 to 5000
7,"COc1ccc2c(C(=O)N3CCc4[nH]cnc4[C@H]3c3nc4ccccc4[nH]3)cnn2c1 [(S)-(4-(1H-benzo[d]imidazol-2-yl)-6,7-dihydro-1H-imidazo[4,5-c]pyridin-5(4H)-yl)(6-methoxypyrazolo[1,5-a]pyridin-3-yl)methanone]",1000 to 5000
8,"Cc1ccc2c(C(=O)N3CCc4[nH]cnc4[C@H]3c3nc4ccccc4[nH]3)cnn2c1 [(S)-(4-(1H-benzo[d]imidazol-2-yl)-6,7-dihydro-1H-imidazo[4,5-c]pyridin-5(4H)-yl)(6-methylpyrazolo[1,5-a]pyridin-3-yl)methanone]",1000 to 5000
9,"O=C(C1CCC1)N1CCc2[nH]cnc2[C@H]1c1nc2ccccc2[nH]1 [(S)-(4-(1H-benzo[d]imidazol-2-yl)-6,7-dihydro-1H-imidazo[4,5-c]pyridin-5(4H)-yl)(cyclobutyl)methanone]",1000 to 5000
10,"O=C(c1ccno1)N1CCc2[nH]cnc2[C@H]1c1nc2ccccc2[nH]1 [(S)-(4-(1H-benzo[d]imidazol-2-yl)-6,7-dihydro-1H-imidazo[4,5-c]pyridin-5(4H)-yl)(isoxazol-5-yl)methanone]",1000 to 5000
11,"O=C(c1cocn1)N1CCc2[nH]cnc2[C@H]1c1nc2ccccc2[nH]1 [(S)-(4-(1H-benzo[d]imidazol-2-yl)-6,7-dihydro-1H-imidazo[4,5-c]pyridin-5(4H)-yl)(oxazol-4-yl)methanone]",1000 to 5000
12,"O=C(c1cc2ccccn2n1)N1CCc2[nH]cnc2[C@H]1c1nc2ccccc2[nH]1 [(S)-(4-(1H-benzo[d]imidazol-2-yl)-6,7-dihydro-1H-imidazo[4,5-c]pyridin-5(4H)-yl)(pyrazolo[1,5-a]pyridin-2-yl)methanone]",> 5000
